According to patent US10881656B2, “HIF inhibitors and use thereof” (The General Hospital Corporation, priority 2008, dated 2021):

Key:
[1] = tested on: iron (Fe-(EDHB)3 complex); experiment: In vitro iron competition assay; conditions: 0-200 micromolars, absorbance at 500 nm
Method: This assay was performed similarly to that described previously (Wang et al., 2002). Briefly, displacement of iron from ethyl-3,4-dihydroxybenzoate (EDHB) complex was measured as a decrease in absorbance at 500 nm. Ferric iron, prepared as a 5 mM stock solution of FeC13 in 100 mM sodium citrate, was diluted to 25 μM in the presence of 750 μM EDHB. 1 ml aliquots of this solution were then mixed with 0, 25, 50, 100 or 200 micromolars of compounds 40, 41, 76, and 77 as well as EDTA and DFO for controls. […] The self absorbance of compound 41 in a matched solution lacking Fe-(EDHB)3 was subtracted from the A500 value obtained in the presence of the Fe-(EDHB)3 complex.
The inventors next directly tested whether the compounds bind iron by performing a competition assay in which the displacement of iron from ethyl-3,4-dihydroxybenzoate (EDHB), a weakly chelating ester, was measured as a decrease in absorbance at 500 nm. […] In addition, the inventors utilized the Connectivity Map to look for similarities between the induced gene expression signatures of low and high dose DFO and compound treated cells (Lamb et al., 2006). Using this bioinformatic approach, the inventors discovered no significant similarity between the gene expression profile of the compounds and low (chelating) DFO dose, while there was a negative correlation between compound effect and high (HIF stabilizing) DFO dose (see FIG. 13).

[2] = target: T1, IRP1 binding to HIF-2a IRE (Homo sapiens, UniProt P21399); experiment: Electrophoretic mobility shift assay, HIF-2a IRE probe; conditions: for binding of IRP1 to HIF-2a IRE probe: lysates of treated 786-O cells, EMSA
T1 sequence (P21399 1-889): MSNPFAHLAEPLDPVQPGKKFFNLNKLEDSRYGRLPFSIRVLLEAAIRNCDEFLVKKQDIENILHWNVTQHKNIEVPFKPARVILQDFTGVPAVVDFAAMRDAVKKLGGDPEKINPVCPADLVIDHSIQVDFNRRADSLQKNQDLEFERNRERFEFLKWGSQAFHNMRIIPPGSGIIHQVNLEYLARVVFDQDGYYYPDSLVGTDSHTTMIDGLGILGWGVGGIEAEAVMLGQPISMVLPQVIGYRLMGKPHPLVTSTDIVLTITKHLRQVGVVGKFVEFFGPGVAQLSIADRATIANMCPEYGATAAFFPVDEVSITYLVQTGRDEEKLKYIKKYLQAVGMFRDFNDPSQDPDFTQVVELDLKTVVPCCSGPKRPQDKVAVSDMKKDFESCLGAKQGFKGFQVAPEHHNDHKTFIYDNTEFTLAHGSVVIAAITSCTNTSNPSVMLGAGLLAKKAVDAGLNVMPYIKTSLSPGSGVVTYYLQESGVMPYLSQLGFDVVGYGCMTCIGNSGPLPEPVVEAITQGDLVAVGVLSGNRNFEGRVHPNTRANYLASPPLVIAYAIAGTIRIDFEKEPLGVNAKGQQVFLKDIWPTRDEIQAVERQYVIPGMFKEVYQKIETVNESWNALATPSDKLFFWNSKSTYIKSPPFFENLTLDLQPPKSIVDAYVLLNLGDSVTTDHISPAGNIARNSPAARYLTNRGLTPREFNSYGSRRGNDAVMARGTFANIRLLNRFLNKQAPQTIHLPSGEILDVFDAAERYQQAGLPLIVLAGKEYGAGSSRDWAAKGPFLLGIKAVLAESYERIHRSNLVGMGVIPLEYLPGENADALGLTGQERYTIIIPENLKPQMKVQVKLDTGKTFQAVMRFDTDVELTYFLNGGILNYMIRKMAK
Method: EMSAs were performed as described previously (Fillebeen et al., 2003). Briefly, 50 μg lysate from 786-O cells treated with medium only, DMSO, or compounds were incubated with 25,000 cpm wild-type or mutant radiolabeled HIF-2a IRE probe for 20 minutes at room temperature before loading onto non-denaturing acrylamide gels. Supershifts were performed identically, save that 0.2 μg control, IRP1 or IRP2 antibodies were also added. Total protein content was estimated by Bradford Assay (BioRad, 500-0006), and even loading for all experiments was confirmed by Western blot for B-Actin.
The inventors next tested the effect of hypoxia on the binding of IRP1 to the HIF-2a wild-type IRE. […] This is due to decreased mRNA binding, as western blots confirm that neither compound application nor hypoxia affects IRP1 protein expression. The involvement of IRP1 was further confirmed with super-shifting experiments with IRP1 antibody (FIG. 7C). No supershifted bands were observed using IRP2 antibody.
Inventors discovered that compound 76 increased the residual amount of IRP1 bound to the HIF-2a IRE in hypoxia, although not to the same extent as that observed in normoxic cells. […] Lastly, to further investigate the involvement of IRP2 in HIF-2a IRE, the inventors compared side by side IRP2 binding to HIF-2a and Ferritin-L IRE in 786-O cells, in conditions of normoxia or hypoxia and after treatment with compound 76 or DFO (FIG. 7E). While IRP2 binding was clearly detected on Ferritin IRE, the inventors were not able to detect measurable IRP2 binding on HIF-2a IRE.
To examine this latter possibility the inventors performed an electophoretic mobility shift assay (EMSA) using a radiolabeled wild type or mutant IRE probe to determine if IRP1 binding is increased (FIG. 18A). […] This shifted band can be supershifted with IRP1 but not IRP2 antibodies (data not shown). To further examine the ability of PGJ2 to enhance IRP1 activity under conditions of normoxia and hypoxia the inventors tested its effect at various concentrations of ambient oxygen, corresponding to physiologic or extreme conditions of tissue oxygenation.

[3] = tested on: HIF-1a; experiment: Western blot for HIF-1a in hypoxic CWR22R and Hep3B cells; type: cell-based, human; conditions: hypoxia
Method: The consensus sequence of the loop and the mandatory 5′ cytosine bulge are highlighted with light blue circles. […] Duplicate plates of 786-O derived lines expressing the putative wild-type or mutant HIF-1a IRE were cultured in the presence of compound as described for FIG. 1, with the exception that one set was placed at 1% oxygen for 24 hours following the first day's medium-change. Cells were treated with M, medium only; D, DMSO; or compounds, as indicated at the following concentrations: 40, 40 μM; 41, 30 μM; 76, 10 μM; 77, 5 μM. […] CWR22R or Hep3B cells were treated with compound and subjected to hypoxia as described above. B-Actin is shown for loading control. Cells were treated with M, medium only; D, DMSO; or compounds, as indicated at the following concentrations: 40, 40 μM; 41, 30 μM; 76, 20 μM; 77, 7.5 μM.
Hypoxia stabilized HIF-2a in VHL-reconstituted WT8 cells, but treatment with compounds diminished hypoxia-induced HIF-2a expression (FIG. 3C).

[4] = tested on: Transferrin Receptor 1 (TfR1) mRNA; experiment: qRT-PCR for Transferrin Receptor 1 mRNA; conditions: for Transferrin Receptor 1 mRNA expression: compound treated 786-O cells

Compound | displacement of iron from EDHB complex (iron chelation) [1] | binding of IRP1 to HIF-2a IRE probe [2] | hypoxic induction of HIF-1a [3] | Transferrin Receptor 1 mRNA expression [4] | binding of IRP1 to wild-type HIF-2a probe in hypoxia ([2]; 786-O cells, 24 hours hypoxia) | TfR1 mRNA stability ([4]; 786-O cells following addition of Actinomycin D)
CC1(C)CC(=O)C=C(Sc2ccc(C#N)cc2[N+](=O)[O-])S1 [Compound 77, 4-[(2,2-dimethyl-4-oxo-3,4-dihydro-2H-thiin-6-yl)thio]-3-nitrobenzonitrile] | are not iron chelators | enhance binding of IRP1 to the HIF-2a IRE | indirectly suppress hypoxic induction of HIF-1a in multiple cell types | increase expression of Transferrin Receptor 1 mRNA |  | 
COC(=O)c1sccc1N/N=C(/C#N)S(C)(=O)=O [Compound 76, methyl 3-{2-[cyano(methylsulfonyl)methylene] hydrazino}thiophene-2-carboxylate] | are not iron chelators | enhance binding of IRP1 to the HIF-2a IRE | indirectly suppress hypoxic induction of HIF-1a in multiple cell types | increase expression of Transferrin Receptor 1 mRNA | enhances binding of IRP1 to wild-type HIF-2a probe in hypoxia | decreases TfR1 mRNA stability
COc1ccc(O)c(/C=C/C(=O)c2c(O)cc(C)oc2=O)c1 [Compound 41, 4-hydroxy-3-[3-(2-hydroxy-5-meoxyphenyl)acryloyl]-6-methyl-2H-pyran-2-one] | are not iron chelators | enhance binding of IRP1 to the HIF-2a IRE | indirectly suppress hypoxic induction of HIF-1a in multiple cell types | increase expression of Transferrin Receptor 1 mRNA |  | 
C/C(=C\c1ccccc1)C(=O)CCN(C)C.Cl [Compound 40, 5-(dimethylamino)-2-methyl-1-phenyl-1-penten-3-one hydrochloride] | are not iron chelators | enhance binding of IRP1 to the HIF-2a IRE | indirectly suppress hypoxic induction of HIF-1a in multiple cell types | increase expression of Transferrin Receptor 1 mRNA |  | 
CCCCC/C=C/C=C1/C(=O)C=C[C@@H]1C/C=C\CCCC(=O)O [PGJ2, 15-deoxy-Δ^12,14-prostaglandin J2] | not an iron chelator | increased the specific IRE binding activity of cell lysates under conditions of both normoxia and hypoxia |  |  |  | 
